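Results reflect a 48-hour exposure of cells in 96-well plates to compound at five concentrations. Abbreviation: GI50, concentration required for 50% inhibition of growth.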 Calls of active or inactive are those of the source. Rule as the data show it: active = GI50 up to about 1.1 µM and inactive = higher.
Key:
Assay in all cases: NCI-60 cell line screen, 48 h
A498 = test system: A498
A549 = test system: A549
ACHN = test system: ACHN
CCRF-CEM = test system: CCRF-CEM
EKVX = test system: EKVX
HL-60 = test system: HL-60
HOP-92 = test system: HOP-92
KM12 = test system: KM12
M14 = test system: M14
MOLT-4 = test system: MOLT-4
NCI-H460 = test system: NCI-H460
OVCAR-4 = test system: OVCAR-4
SF-268 = test system: SF-268
SF-295 = test system: SF-295
SK-MEL-2 = test system: SK-MEL-2

Measured: GI50

N#Cc1c(-c2ccco2)cc(-c2ccccc2)nc1O
inactive: A498 > 100 µM | A549 > 100 µM | ACHN > 100 µM | CCRF-CEM > 100 µM | EKVX > 100 µM | HL-60 > 100 µM | HOP-92 > 100 µM | KM12 > 100 µM | M14 > 100 µM | MOLT-4 > 100 µM | NCI-H460 > 100 µM | OVCAR-4 63.4 µM | SF-268 > 100 µM | SF-295 > 100 µM

CN/N=C(\C)C(CN1CCCCC1)C(C1=C(O)c2ccccc2OC1)c1ccccc1 (stereo not given)
inactive: A498 > 10 µM | A549 > 100 µM | ACHN > 100 µM | CCRF-CEM 69.2 µM | EKVX > 100 µM | HL-60 35.2 µM | KM12 > 100 µM | M14 > 100 µM | MOLT-4 39.4 µM | NCI-H460 > 100 µM | OVCAR-4 > 100 µM | SF-268 > 100 µM | SF-295 82 µM | SK-MEL-2 > 100 µM

CC1CCP(=O)(c2ccccc2)c2ccccc21 (stereo not given)
inactive: A498 > 100 µM | A549 > 100 µM | ACHN 42.5 µM | CCRF-CEM 37.7 µM | EKVX > 100 µM | HL-60 19.6 µM | KM12 > 100 µM | M14 > 100 µM | MOLT-4 30.8 µM | NCI-H460 40.8 µM | OVCAR-4 38.5 µM | SF-295 > 100 µM | SK-MEL-2 > 100 µM

CNC(=O)CN(CC(=O)NC)C(=O)NC
inactive: A498 > 100 µM | A549 > 100 µM | ACHN > 100 µM | CCRF-CEM > 100 µM | EKVX > 100 µM | HL-60 > 100 µM | HOP-92 > 100 µM | KM12 > 100 µM | M14 > 100 µM | MOLT-4 > 100 µM | OVCAR-4 > 100 µM | SF-268 > 100 µM | SF-295 > 100 µM | SK-MEL-2 > 100 µM

N/N=C1\C(=O)N(CCc2ccccc2)C(=O)C1C(=O)NCCc1ccccc1 (stereo not given)
inactive: A549 > 100 µM | ACHN > 100 µM | CCRF-CEM > 100 µM | EKVX > 100 µM | HL-60 > 100 µM | HOP-92 > 100 µM | KM12 > 100 µM | M14 > 100 µM | MOLT-4 > 100 µM | SF-268 > 100 µM | SF-295 > 100 µM | SK-MEL-2 > 100 µM

CC(C)(Oc1ccc(/C=C/C(=O)c2ccc(Cl)cc2)cc1)C(=O)Nc1c(Cl)cccc1Cl
inactive: A498 17.1 µM | A549 31.4 µM | ACHN 20.9 µM | EKVX 57.8 µM | HOP-92 15.7 µM | KM12 11.8 µM | M14 17.5 µM | MOLT-4 6.32 µM | NCI-H460 31.6 µM | OVCAR-4 23.4 µM | SF-268 28.5 µM | SF-295 25.8 µM | SK-MEL-2 42.3 µM

CC(C)OP(=O)(NC(=S)c1ccccc1)OC(C)C
inactive: A498 43 µM | A549 92 µM | ACHN > 100 µM | CCRF-CEM 74.5 µM | EKVX > 100 µM | HOP-92 > 100 µM | KM12 > 100 µM | M14 > 100 µM | MOLT-4 80.7 µM | NCI-H460 23.4 µM | OVCAR-4 > 100 µM | SF-268 > 100 µM | SF-295 > 100 µM | SK-MEL-2 > 100 µM

CN1C(=O)n2c(nc3ccccc32)C(N=[N+]=[N-])(N=[N+]=[N-])C1=O (stereo not given)
inactive: A498 > 100 µM | A549 > 100 µM | ACHN > 100 µM | CCRF-CEM 68.9 µM | EKVX > 100 µM | HL-60 > 100 µM | HOP-92 86.5 µM | KM12 > 100 µM | M14 > 100 µM | MOLT-4 > 100 µM | NCI-H460 > 100 µM | OVCAR-4 > 100 µM | SF-268 > 100 µM | SF-295 > 100 µM | SK-MEL-2 > 100 µM

CC1(C)c2ccccc2N2O[C@@H]3C(=O)N(c4ccccc4)C(=O)[C@@H]3C21c1ccccc1 (stereo not given in full)
inactive: A549 > 100 µM | CCRF-CEM 52.8 µM | EKVX > 100 µM | HL-60 30.8 µM | KM12 > 100 µM | M14 > 100 µM | MOLT-4 47.8 µM | SF-268 > 100 µM | SF-295 > 100 µM | SK-MEL-2 > 100 µM

N#C/N=C(/NCCc1c[nH]c2ccccc12)Oc1ccccc1
inactive: A549 60.4 µM | ACHN 27.4 µM | CCRF-CEM 21.9 µM | EKVX 26.7 µM | HL-60 21.6 µM | KM12 40.8 µM | M14 78.5 µM | MOLT-4 37.1 µM | NCI-H460 37.1 µM | OVCAR-4 73.3 µM | SF-268 > 100 µM | SF-295 45.8 µM

COC(=O)c1cc(O)ccc1NC(=O)c1ccc(O)cc1
inactive: A549 > 100 µM | ACHN > 100 µM | CCRF-CEM > 100 µM | EKVX > 100 µM | HL-60 > 100 µM | HOP-92 87.7 µM | KM12 > 100 µM | M14 > 100 µM | MOLT-4 > 100 µM | NCI-H460 > 100 µM | OVCAR-4 > 100 µM | SF-268 > 100 µM | SF-295 > 100 µM | SK-MEL-2 > 100 µM

COc1c2nc(CCl)[nH]c(=O)c2c(OC)c2nc(CCl)[nH]c(=O)c12
inactive: A549 > 100 µM | ACHN > 100 µM | CCRF-CEM > 100 µM | HL-60 > 100 µM | HOP-92 > 100 µM | KM12 > 100 µM | M14 > 100 µM | MOLT-4 > 100 µM | NCI-H460 > 100 µM | OVCAR-4 > 100 µM | SF-268 > 100 µM | SF-295 > 100 µM | SK-MEL-2 > 100 µM

COC(=O)N1CCc2c(nc(N(C)CCO)[nH]c2=O)C1
inactive: A498 > 100 µM | A549 > 100 µM | ACHN > 100 µM | CCRF-CEM > 100 µM | EKVX > 100 µM | HL-60 > 100 µM | HOP-92 > 100 µM | KM12 > 100 µM | M14 > 100 µM | MOLT-4 > 100 µM | NCI-H460 > 100 µM | SF-268 > 100 µM | SF-295 > 100 µM | SK-MEL-2 > 100 µM

CC(C)c1cccc(C(C)C)c1NC(=S)NN=C1C=C(C(C)(C)C)C(=O)C(C(C)(C)C)=C1
inactive: A498 17.9 µM | A549 19.9 µM | ACHN 34.4 µM | CCRF-CEM 22.7 µM | EKVX 33.5 µM | HL-60 26.1 µM | M14 41.6 µM | MOLT-4 28.7 µM | NCI-H460 25.6 µM | OVCAR-4 17.3 µM | SF-268 34.3 µM | SF-295 31 µM | SK-MEL-2 20.2 µM

Source: ChEMBL document CHEMBL1201862, “PubChem BioAssay data set” (2004)
